Measurements from patent US11559528B2, “BACE1 inhibition for the treatment of cancer” (The Cleveland Clinic Foundation, priority 2019, dated 2023).

How the values were obtained:
T4121 GSCs = experiment: Tumorsphere formation assay; format: cell-based, human; details: MK-8931 50 μg/mL
Experimental: FIG. 16, panels A-E. MK-8931 Treatment Had Little Effect on Glioma Stem Cells. (A and B) Tumorsphere formation assay to examine the effect of MK-8931 treatment on glioma stem cells (GSCs). Representative images (A) of tumorsphere derived from T4121 GSCs treated with MK-8931 (50 μg/mL) or the vehicle control. Quantifications (B) show the number and size of tumorsphere derived from T4121 GSCs treated with MK-8931 (50 μg/mL) or the control. Data are shown as mean±SEM. NS (not significant)≥0.05, Student's t-test. […] GAPDH was blotted as loading control. (D) Immunoblot analysis of the apoptotic markers cleaved-PARP and cleaved caspase-3 in GSCs (T387 and T4121) treated with MK-8931 (50 μg/mL), etoposide (Etop, 1 μM), or the vehicle control for different time as indicated. GAPDH was blotted as loading control. […] Ctl: Control; Etop: Etoposide. (E) Cell viability assay to examine the effect of MK-8931 treatment on proliferation of glioma stem cells. […] Data are shown as mean±SEM. NS (not significant)≥0.05, Student's t-test.
Tumorsphere formation assay was performed as described in our previous study (Shi et al., 2018). Glioma cells (1000 cells) were plated on the one well of a 96-well plate and maintained in the stem cell medium. […] The sizes and numbers of the tumor-sphere in the control and MK-8931 groups were furthered analyzed with ImageJ.

AGS gastric cancer cells = experiment: Subcutaneous stomach cancer xenografts (AGS); format: in vivo, mouse; details: 50 mg/kg once daily oral gavage, from two weeks after inoculation; p<0.05
Excerpt: FIG. 22, panels A-C, show treatment with the BACE1 Inhibitor MK-8931 reduced tumor growth of gastric cancer. (A-C) A preclinical trial of MK-8931 for stomach cancer treatment in xenograft models. AGS gastric cancer cells (3×106) were transplanted into mouse right flank through subcutaneous injection to establish subcutaneous stomach cancer xenografts. […] Tumors dissected from mice of each group were photographed (B) and weighed (C).

[1] = tested on: iPSC-derived M2 macrophages; experiment: Fluorescent phagocytosis assay, iPSC-derived M2 macrophages against lung ADC cells (H1002); format: cell-based, human; set-up: dose or concentration left out as unconfirmed; details: MK-8931 two days, p<0.01
Excerpt: FIG. 10, panels A-C. MK-8931 Treatment Promotes Phagocytosis of iPSC-derived M2 Macrophages against Human Lung ADC Cancer Cells. (A) Immunofluorescent analysis of macrophage marker expression in iPSC-derived M2 macrophages. The iPSC-derived M2 macrophages (GFP+) and the matched iPSCs (GFP+, control) were stained with specific antibodies against IBA1 (total macrophage marker, in red) and FIZZ1 (M2 macrophage marker, in red) and then counterstained with DAPI (in blue). […] (B and C) In vitro macrophage phagocytosis assay showing that the BACE1 inhibitor MK-8931 promoted phagocytosis of the iPSC-derived macrophages against human lung ADC cancer cells. […] Scale bars represent 3 μM. […]
In this assay, we detected macrophage phagocytosis as fluorescent inclusion bodies of the cancer cells (tdTomato^+) within macrophages (GFP^+). […] Thus, potential small molecules that can activate macrophages (GFP*) to phagocytize glioma cells (tdTomato*) could be detected under a fluorescent microscope during the screening (FIG. 1C).
To screen for potential small molecules activating phagocytosis of iPSC-derived M2 macrophages against human cancer cells, GFP^+ iPSC-derived M2 macrophages (5×10^4 cells) were seeded in each well of 24-well plates and treated by small molecules for two days. […] The phagocytosis was measured as the number of inclusion bodies of cancer cells (in red) within macrophages (in green).

[2] = tested on: U937-derived M2 macrophages; experiment: Immunoblot of macrophage markers in U937-derived M2 macrophages; set-up: expression of M2 macrophage markers (CD163 and ARG1): dose or concentration left out as unconfirmed
Experimental: In brief, U937 cells were primed by PMA (5 nM) for two days to generate M0 macrophages and then incubated with IL4 (20 ng/mL), IL10 (20 ng/mL), and TGFβ (20 ng/mL) for three days to produce M2-like macrophages. (B) Immunoblot analyses of BACE1, the M2 macrophage markers (CD163 and ARG1), and the total macrophage marker IBA1 in U937 monocytes and the U937-derived M2 macrophages expressing shRNAs against BACE1 (shBACE1) or non-targeting sequence (NT). […] (D) Immunoblot analyses of the M2 macrophage markers (CD163 and ARG1), the M1 macrophage markers (iNOS and HLA-DR), and the total macrophage marker IBA1 in the U937-derived M2 macrophages expressing shRNAs against BACE1 (shBACE1: #1 or #2) or non-targeting control (shNT). The U937-derived M2 macrophages were transduced with shBACE1 shNT through lentiviral infection.
In brief, U937 cells grown in a 10-cm tissue culture dish were primed by PMA (5 nM) for two days to produce M0 macrophages. Then the M0 macrophages were further induced by IL4 (20 ng/mL, Peprotech, 200-04), IL10 (20 ng/mL, Peprotech, 200-10), and TGFβ (20 ng/mL, Peprotech, 200-21) for three days to generate M2 macrophages.
In brief, cells were lysed with the RIPA buffer [50 mM TrisHCl (pH7.4), 150 mM NaCl, 2 mM EDTA, 1% (v/v) NP-40, 0.1% (w/v) SDS, protease inhibitor (one tablet per 10 mL RIPA buffer, Roche)] for 20 minutes on ice. […] The lysates were collected and subjected to SDS-PAGE and blotted onto the PVDF membranes (ASI, XR730). After blockade with 5% (w/v) non-fat milk (RPI, M17200) in TBST, the membranes were incubated with primary antibodies overnight at 4° C. After the incubation of the first antibodies, the membranes were washed three times with TBST for ten minutes each. Then, the membranes were incubated with the second HRP-linked antibodies in the 5% milk for one hour at room temperature.

[3] = tested on: GBM xenografts derived from T4121 GSCs; experiment: Intracranial GBM xenografts from T4121 glioma stem cells; format: in vivo, mouse
[4] = tested on: bone marrow-derived macrophages (BMDMs); experiment: Phagocytosis assay, bone marrow-derived macrophages against glioma cells; format: cell-based, mouse; details: MK-8931 50 μg/mL two days; T4121; p<0.001
[5] = 0, 5, 10, 25, 50, and 100 μg/mL for three days
[6] = 50 μg/mL for 0, 12, 24, 48, 72, or 96 hours
[7] = 30 mg/kg once daily oral gavage two weeks, p<0.001

CN1C(N)=N[C@](C)(c2cc(NC(=O)c3ccc(F)cn3)ccc2F)CS1(=O)=O [MK-8931]
number and size of tumorspheres (T4121 GSCs): did not affect GSC sphere formation | tumor growth (tumor weight) (AGS gastric cancer cells): significantly reduced tumor growth of gastric cancer | phagocytosis of iPSC-derived macrophages against human lung ADC cancer cells [1]: potently induced phagocytosis of iPSC-derived macrophages | M1 marker expression (iNOS and HLA-DR), dose series [2, 5]: induced M1 marker expression | M2 marker expression (CD163 and ARG1), dose series [2, 5]: inhibited M2 marker expression in a dose-dependent manner | M1 marker expression (iNOS and HLA-DR), time course [2, 6]: induced M1 marker expression in a time-dependent fashion | M2 marker expression (CD163 and ARG1), time course [2, 6]: inhibited M2 marker expression | M2 to M1 switch with ectopic expression of constitutively activated STAT3 (STAT3-C) ([2]; MK-8931 50 μg/mL three days, STAT3-C-Flag vs vector): attenuated the M2 to M1 switch induced by MK-8931 treatment | expression of total macrophage marker IBA1 ([2]; MK-8931 (50 g/mL) three days): little effect | expression of M2 macrophage markers (CD163 and ARG1) ([2]; MK-8931 three days): reduced expression of the M2 macrophage markers | IL1β expression (IHC intensity) [3, 7]: significantly induced IL1β expression | IL10 expression (IHC intensity) [3, 7]: significantly reduced IL10 expression | TGF-β expression (IHC intensity) [3, 7]: significantly reduced TGF-β expression | TNFα expression (IHC intensity) [3, 7]: significantly induced TNFα expression | tumor growth (mean bioluminescence) ([3]; 30 mg/kg/daily oral, Days 7, 14, and 21): significantly inhibited tumor growth of GBM xenografts | survival (Kaplan-Meier) ([3]; 30 mg/kg/daily oral, log-rank p<0.01): significantly extended the survival of mice bearing the GBM tumors | apoptosis (cleaved caspase-3+ cells) ([3]; 30 mg/kg/daily oral, p<0.001): significantly increased apoptosis | GSC population (SOX2+ cells) ([3]; 30 mg/kg/daily oral, p<0.01): significantly reduced GSCs | proliferative cells (Ki-67+) ([3]; 30 mg/kg/daily oral, p<0.01): significantly reduced proliferative cells | vessel density (CD31) ([3]; 30 mg/kg/daily oral, p<0.01): significantly reduced vessel density | phagocytosis of BMDMs against human glioma cells [4]: significantly promoted phagocytosis of BMDMs
